Literature values, collected in patent US20180271760A1, “Skin Care Compositions” (priority 2017, published 2018).
Values after ≈ are worked out from the molar mass of the structure shown.

Experiments:
[1] = in 4 weeks

solubility in glycerol and glycols (glycerol and glycols) | solubility in water (water, solubility is pH dependent) [g/L] | Compound | reduction of TEWL [1] [%]
soluble | 2.1 (≈ 11.2 mM) | O=C(O)CCCCCCCC(=O)O [Azelaic acid] | –
– | – | NC(=O)c1cccnc1 [niacinamide] | 24
